Measurements as given in paper PMC12720098, “Prolintane analogs as hybrid monoamine transporter ligands: Structural determinants and species differences” (The Journal of Biological Chemistry, 2025).

How the values were obtained:
hDAT [1] = molecular target: T1, hDAT (Homo sapiens, UniProt Q01959); experiment: Uptake inhibition assay ([3H]DA) in transfected HEK293 cells; type: cell-based; details: for DAT/SERT ratio: human isoform (h), 1/DAT IC50 / 1/SERT IC50
T1 construct: expressed in transfected cells
T1 sequence (Q01959 whole entry, canonical isoform): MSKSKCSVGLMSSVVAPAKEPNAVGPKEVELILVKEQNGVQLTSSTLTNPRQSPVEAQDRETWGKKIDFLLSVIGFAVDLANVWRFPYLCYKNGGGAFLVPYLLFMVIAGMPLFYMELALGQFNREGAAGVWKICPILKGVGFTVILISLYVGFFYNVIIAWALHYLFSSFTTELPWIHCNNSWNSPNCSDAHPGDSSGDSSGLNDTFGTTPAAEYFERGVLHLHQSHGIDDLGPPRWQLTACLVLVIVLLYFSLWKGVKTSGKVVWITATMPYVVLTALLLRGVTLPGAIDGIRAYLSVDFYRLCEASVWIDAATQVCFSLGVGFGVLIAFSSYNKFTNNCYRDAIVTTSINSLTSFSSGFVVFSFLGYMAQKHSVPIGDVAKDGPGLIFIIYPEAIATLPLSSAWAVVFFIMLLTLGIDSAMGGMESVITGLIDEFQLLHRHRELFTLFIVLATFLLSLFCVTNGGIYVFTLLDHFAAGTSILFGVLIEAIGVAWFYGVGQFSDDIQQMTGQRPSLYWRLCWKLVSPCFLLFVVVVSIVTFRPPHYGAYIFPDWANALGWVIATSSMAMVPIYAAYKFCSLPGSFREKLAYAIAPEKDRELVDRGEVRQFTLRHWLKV
Protocol: HEK293 cells stably expressing human monoamine transporters hSERT, hDAT or hNET were seeded into poly-D-lysine (PDL) coated 96-well plates with a density of approximately 36,000 cells per well 1 day prior to experiments. A day after seeding, the cell medium was replaced with 200 μl Krebs-HEPES-buffer (KHB; 120 mM NaCl, 3 mM KCl, 2 mM CaCl2·2H2O, 2 mM MgCl2·6H2O, 20 mM D-glucose, pH = 7.3). The test drugs were initially dissolved in Milli-Q H2O or dimethyl sulfoxide (DMSO) at a concentration of 10 to 100 mM. Then, cells were treated with the respective concentration of the test drug diluted in KHB for 5 min as a pre-incubation step. Subsequently, in the uptake step, the solution was replaced with 50 μl/well diluted drug solution and tritiated substrate (hDAT: 0.1 μM [^3H]DA; hNET: 0.02 μM [^3H]MPP^+; hSERT: 0.1 μM [^3H]5-HT) for 1 min (hDAT, hSERT) or 3 min (hNET). After incubation, cells were immediately washed with 200 μl KHB to stop uptake. Uptake was indirectly measured by quantifying beta emission with liquid scintillation counting (Wallac 1450 MicroBeta TriLux Liquid Scintillation Counter & Lumi; GMI). Therefore, 200 μl Ultima Gold XR scintillation cocktail (PerkinElmer, MA, USA) was added to each well.
(§1) Half-maximal inhibitory concentrations (IC50) were obtained from fitting a sigmoidal dose–response ( Y=Bottom+Top−Bottom/1+10^((LogIC50−X)·HillSlope) ) in GraphPad Prism 10.3.1 (GraphPad Software Inc.). Uptake inhibition data were evaluated by one-way ANOVA followed by Tukey's multiple comparisons test. Release data were analyzed using a two-way ANOVA (batch release) or a mixed-effects model with Geisser-Greenhouse correction (time-dependent traces) employing Šidák correction for comparing differences between compounds with or without the addition of monensin.

hNET = molecular target: T2, hNET (Homo sapiens, UniProt P23975); experiment: Batch release assay ([3H]MPP+) in transfected HEK293 cells; type: cell-based; details: % efflux of total uptake, compounds approximately at IC50 concentration
T2 construct: expressed in transfected cells
T2 sequence (P23975 whole entry): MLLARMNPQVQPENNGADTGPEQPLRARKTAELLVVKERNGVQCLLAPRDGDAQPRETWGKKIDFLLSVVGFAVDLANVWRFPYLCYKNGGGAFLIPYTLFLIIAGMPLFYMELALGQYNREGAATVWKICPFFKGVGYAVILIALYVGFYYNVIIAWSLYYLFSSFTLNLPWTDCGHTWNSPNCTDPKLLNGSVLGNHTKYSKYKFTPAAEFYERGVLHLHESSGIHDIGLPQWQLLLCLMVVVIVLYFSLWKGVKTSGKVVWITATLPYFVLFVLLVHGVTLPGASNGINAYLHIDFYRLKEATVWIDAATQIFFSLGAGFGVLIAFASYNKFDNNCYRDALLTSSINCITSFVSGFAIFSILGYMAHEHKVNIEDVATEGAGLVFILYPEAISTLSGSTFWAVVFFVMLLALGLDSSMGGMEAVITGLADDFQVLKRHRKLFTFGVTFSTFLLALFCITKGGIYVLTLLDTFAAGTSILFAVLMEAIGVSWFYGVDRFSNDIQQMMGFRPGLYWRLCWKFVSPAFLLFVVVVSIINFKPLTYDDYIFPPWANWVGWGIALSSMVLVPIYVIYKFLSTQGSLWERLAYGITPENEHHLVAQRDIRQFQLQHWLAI
Protocol: (§2) Batch release assays were performed as described previously ([44]). In brief, HEK293 cells stably expressing monoamine transporters were seeded similar to the procedure used for uptake inhibition assays. A day after seeding cells were pre-loaded with 50 μl/well 0.015 μM [^3H]MPP^+ (hDAT, hNET), or 0.08 μM [^3H]5-HT (hSERT) for 20 min at 37 °C. Then cells were washed four times for 3 to 4 min each and further incubated with KHB or KHB + monensin. After 10 min of incubation, two (screening) to four (full traces; hSERT) 2 min incubations were performed to establish a baseline release without substance. […] Each fraction was transferred to an empty well in the 96-well plate. For screening, a known inhibitor (hDAT, hNET: 50 μM GBR12909) and releaser (hDAT, hNET: 10 μM S-(+)-amphetamine) were used as controls. Ultima Gold XR scintillation cocktail was added to the remaining cells, and each well contained a release fraction. The counted radioactivity in the respective fraction was expressed as a percentage of total radioactivity at the start of the fraction.
as §1

hDAT [2] = molecular target: T1, hDAT; experiment: as above; type: cell-based; details: % efflux of total uptake, compounds approximately at IC50 concentration
Protocol: as §2, §1

rNET = molecular target: T3, rNET (Rattus norvegicus, UniProt Q63380); experiment: Uptake inhibition assay ([3H]norepinephrine) in rat brain synaptosomes; type: biochemical
T3 construct: As a means to evaluate transporter activity of prolintane analogs in native tissue preparation; from tissue; host or cells: rat brain synaptosomes (whole brain minus caudate and cerebellum)
T3 sequence (Q63380 1-617): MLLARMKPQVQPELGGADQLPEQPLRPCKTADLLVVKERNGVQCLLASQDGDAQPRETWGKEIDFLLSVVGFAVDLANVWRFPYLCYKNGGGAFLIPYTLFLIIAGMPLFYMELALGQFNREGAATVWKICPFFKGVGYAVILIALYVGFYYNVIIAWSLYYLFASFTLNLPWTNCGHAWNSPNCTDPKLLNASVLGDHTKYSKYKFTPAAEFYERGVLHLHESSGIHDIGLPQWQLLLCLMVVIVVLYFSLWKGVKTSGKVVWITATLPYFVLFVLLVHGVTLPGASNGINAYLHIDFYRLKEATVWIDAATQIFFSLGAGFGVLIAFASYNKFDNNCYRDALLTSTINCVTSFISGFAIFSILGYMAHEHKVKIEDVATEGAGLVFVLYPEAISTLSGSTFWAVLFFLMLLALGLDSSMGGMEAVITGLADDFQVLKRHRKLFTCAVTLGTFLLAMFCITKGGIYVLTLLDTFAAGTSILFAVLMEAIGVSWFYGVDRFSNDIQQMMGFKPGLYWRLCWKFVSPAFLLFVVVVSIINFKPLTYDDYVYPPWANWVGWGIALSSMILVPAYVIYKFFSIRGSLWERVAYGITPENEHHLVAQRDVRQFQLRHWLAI
Protocol: Rats were killed by CO2 narcosis and decapitated, then synaptosomes were prepared from brains using standard procedures. In brief, synaptosomes were prepared from caudate tissue for rat DAT (rDAT) assays, or from whole brain minus caudate and cerebellum for rat NET (rNET) and rat SERT (rSERT) assays. Brain tissue was homogenized in ice-cold 10% sucrose followed by centrifugation at 1000g for 10 min. The resulting supernatant containing crude synaptosomes was kept on ice until use in uptake or release procedures. Uptake inhibition and release assays were carried out as previously described ([62], [63]).
For uptake inhibition assays, 5 nM [^3H]dopamine, 10 nM [^3H]norepinephrine, or 5 nM [^3H]5-HT was used as the radiolabeled transmitter for rDAT, rNET, or rSERT, respectively. To optimize uptake for a single transporter, unlabeled blockers were included that prevented uptake of [^3H]transmitter by competing transporters: 50 nM GBR 12935 was added to NET and SERT assays to block DAT, 100 nM nomifensine was added to SERT assays to block NET. Uptake assays were initiated by adding 100 μl of tissue to 900 μl Krebs-phosphate buffer (126 mM NaCl, 2.4 mM KCl, 0.83 mM CaCl2, 0.8 mM MgCl2, 0.5 mM KH2PO4, 0.5 mM Na2SO4, 11.1 mM glucose, 0.05 mM pargyline, 1 mg/ml bovine serum albumin, and 1 mg/ml ascorbic acid, pH 7.4) containing test drug and [^3H]transmitter. Uptake assays were terminated by rapid vacuum filtration, and retained radioactivity was quantified with liquid scintillation counting.
Effects of test drugs on release and uptake inhibition were analyzed by nonlinear regression using GraphPad Prism 9 (GraphPad Scientific, San Diego, CA, USA). Concentration–response values for the uptake inhibition and release were fit to the equation, Y(x)=Ymin+Ymax−Ymin/1+10^((LogP50−LogX)·n) , where x is the concentration of the compound tested, Y(x) is the response measured, Ymax is the maximal response, P50 is either IC50 (the concentration that yields half-maximal uptake inhibition response) or EC50 (the concentration that yields half-maximal release response), and n is the Hill slope parameter.

SMILES	IC50 (hDAT [1])	DAT/SERT ratio (hDAT [1])	hNET-mediated efflux, predicted (LS) mean diff, No mon - Mon (hNET)	hDAT-mediated efflux, predicted (LS) mean diff, No mon - Mon (hDAT [2])	IC50 (rNET)	inhibitory potency at hDAT compared to pyrovalerone (hDAT [1]; pyrovalerone value ref 53)
CCCC(Cc1cccc(C)c1)N1CCCC1 (stereo not drawn) [3-Methylprolintane, 1-[1-(3-methylphenyl)pentan-2-yl]pyrrolidine]	0.056 ± 0.011 µM	53	-0.8634	-0.702	0.062 ± 0.009 µM	–
CCCC(Cc1ccccc1)N1CCCC1 (stereo not drawn) [Prolintane, 1-(1-phenylpentan-2-yl)pyrrolidine]	0.043 ± 0.024 µM	670	-0.3446	0.1383	0.039 ± 0.004 µM	–
CCCC(Cc1ccc(F)cc1)N1CCCC1 (stereo not drawn) [4-Fluoroprolintane, 1-[1-(4-fluorophenyl)pentan-2-yl]pyrrolidine]	0.109 ± 0.041 µM	179	0.3845	-0.2875	0.217 ± 0.021 µM	–
CCCC(Cc1cccc(F)c1)N1CCCC1 (stereo not drawn) [3-Fluoroprolintane, 1-[1-(3-fluorophenyl)pentan-2-yl]pyrrolidine]	0.064 ± 0.02 µM	210	0.3678	0.0325	0.028 ± 0.003 µM	–
CCCC(Cc1ccc(C)cc1)N1CCCC1 (stereo not drawn) [4-Methylprolintane, 1-[1-(4-methylphenyl)pentan-2-yl]pyrrolidine]	0.016 ± 0.002 µM	159	-0.3451	-0.8967	0.045 ± 0.005 µM	four-fold greater
CCCC(Cc1ccccc1F)N1CCCC1 (stereo not drawn) [2-Fluoroprolintane, 1-[1-(2-fluorophenyl)pentan-2-yl]pyrrolidine]	0.109 ± 0.019 µM	323	0.3867	-0.6425	0.063 ± 0.006 µM	–
CCCC(Cc1ccccc1C)N1CCCC1 (stereo not drawn) [2-Methylprolintane, 1-[1-(2-methylphenyl)pentan-2-yl]pyrrolidine]	0.185 ± 0.065 µM	23	-0.3417	-0.04333	0.138 ± 0.013 µM	–
